# Where no end group is shown, it is not given here.
# Assays:
# [1] = ABTS radical scavenging assay; type: biochemical; parameters: key to Anti-oxidant activity (summary): +, active; -, inactive; details: for antioxidant activity (ABTS radical scavenging), in words: 4 min reaction, absorbance 650 nm, resveratrol as positive control, n = 3; for Anti-oxidant activity (summary): Figure 4B summary, ABTS radical scavenging
# Protocol: The antioxidant activities of melittin and melittin-derived peptides were measured using the 2,2'-azino-bis(3-ethylbenzothiazoline-6-sulfonic acid) (ABTS) radical scavenging assay. ABTS^+ radical solution was prepared by mixing equal volumes of 7 mM ABTS solution with 2.4 mM persulfate solution and allowing them to react in the dark at 25 °C for 24 h. Before this reaction, the ABTS^+ radical solution was diluted with distilled water to obtain an absorbance of 0.7 ± 0.01 units at 650 nm. Melittin and melittin-derived peptides (20 µL each) at various concentrations were then reacted with 80 µL of ABTS^+ radical solution for 4 min in the dark, and absorbance was measured at 650 nm using an EMax Plus microplate reader (Molecular Devices, San Jose, CA, USA). ABTS^+ radical scavenging activity was calculated using the following formula: ABTS+ radical scavenging activity (%) = [1 − (Abssample − Absblank of sample) / Abscontrol] × 100, where Abscontrol is the absorbance of ABTS^+ radical solution diluted in water, Abssample is the absorbance of ABTS^+ radical solution mixed with melittin or melittin-derived peptides, and Absblank of sample is the absorbance of water mixed with melittin or melittin-derived peptides. All experiments were performed in triplicates (n = 3).
# BEAS-2B cells = experiment: MTS cell viability assay (CellTiter 96 Aqueous One), BEAS-2B; type: cell-based, human; parameters: key to Cytotoxicity (summary): +, active; -, inactive; details: 24 h; for Cytotoxicity (summary): Figure 4B summary, MTS assay, BEAS-2B and HeLa cells
# Description: Human pulmonary bronchial epithelial BEAS-2B, human epithelial cervix carcinoma HeLa, murine macrophage RAW 264.7, and rat basophilic leukemia mast RBL-2H3 cells were purchased from American Type Culture Collection (ATCC, VA, USA). BEAS-2B cells were maintained in bronchial epithelial basal medium (BEBM; Lonza, Basel, Switzerland). HeLa, RAW 264.7, and RBL-2H3 cells were maintained in DMEM supplemented with 10% heat-inactivated fetal bovine serum (Welgene, Gyeongsangbuk-do, Korea) and 1% penicillin and streptomycin (Welgene) at 37 °C in a humidified atmosphere of 5% CO2. Melittin and its derived peptides (Figure 1A) were synthesized by Peptron, Inc. (Daejeon, Korea).
# The effect of melittin and melittin-derived peptides on cell viability was evaluated using the CellTiter 96^R Aqueous One Solution Cell Proliferation Assay (Promega, Madison, WI, USA), according to the manufacturer’s instructions (Cambronero-Urena et al. [2021]). BEAS-2B and HeLa cells were seeded (3,000 cells/well) in 96-well plates and incubated for 24 h. Culture medium containing melittin or melittin-derived peptides was added to the plates, and they were incubated for 24 h. Thereafter, 20 μL of MTS reagent was added, and absorbance was measured at 490 nm using a microplate reader (Molecular Devices EMax Plus). The formula used to calculate the cell viability is as follows: Cell viability (%)={(A Sample−A [Blank]) / (A [Control])−A [Blank])}×100, Where A is the absorbance for a given wavelength.
# [2] = system: TNF-α, IL-6, IL-1β mRNA expression in RAW 264.7 cells; experiment: qRT-PCR of inflammatory cytokine mRNA in LPS-stimulated RAW 264.7 cells; type: cell-based, murine; parameters: key to Anti-inflammatory activity (summary): +, active; -, inactive; details: for Anti-inflammatory activity (summary): Figure 4B summary, LPS-stimulated RAW 264.7 cells
# Protocol: RAW 264.7 cells (1 × 10^5 cells/well) were seeded in 6-well plates and incubated for 24 h (Ahmed et al. [2020]). Next, culture medium with melittin or melittin-derived peptides was added to the plates, and they were incubated for 24 h. Thereafter, lipopolysaccharide (LPS) was added to the medium at a final concentration of 1 μg/mL, followed by incubation for 6 h. The medium was completely removed, the cells were washed with cold PBS and lysed with 1 mL of RiboEx (GeneAll, Korea), and RNA was extracted using a Hybrid-R RNA purification kit (GeneAll). To synthesize cDNA, RNA was quantified using a Nabi UV/Vis nanospectrophotometer (MicroDigital, Korea), and 1 μL of random hexamer (100 pmol/μL) and 1 μL of dNTP mix (10 mM) were added to each RNA sample (1 μg). The total volume was adjusted to 10 μL using DEPC-treated water. The mixture was subjected to heating at 65 °C for 5 min and immediately cooled on ice. Thereafter, 1 μL M-MLV reverse transcriptase (Promega), 4 μL 5X M-MLV RT reaction buffer (Promega), 1 μL RNase inhibitor (Enzynomics, Korea), and 4 μL DEPC-treated water were added to each RNA sample, and the mixture was incubated at 25 °C for 10 min and then at 50 °C for 1 h.
# The mRNA expression levels of inflammatory cytokines were analyzed using qRT-PCR. The reaction mixture contained 10 μL of 2X Prime Q-master Mix (GENET BIO, Korea), 1.5 μL of 10 pmol/μL forward primer, 1.5 μL of 10 pmol/μL reverse primer, 5 μL of DEPC-treated water, and 2 μL of cDNA (1/10 dilution); qRT-PCR was performed using AriaMx (Agilent, USA) as per the following conditions: 40 cycles of denaturation at 95 °C for 20 s, annealing at 58 °C for 20 s, and elongation at 72 °C for 20 s. The primers used for the qRT-PCR are listed in Supplementary 1.
# [3] = system: IκBα phosphorylation in RAW 264.7 cells; experiment: Immunoblot of phospho-IκBα in LPS-stimulated RAW 264.7 cells; type: cell-based, murine; details: RAW 264.7, 24 h pretreatment (melittin 1.25 μM; P1 2.5 μM; P2 indicated concentrations), LPS 1 μg/mL 1 h, n = 3
# Protocol: RAW 264.7 cells (1 × 10^5 cells/well) were seeded in a 6-well plate and incubated for 24 h. Medium containing melittin or melittin-derived peptides was added, and the plates were incubated for 24 h. Thereafter, LPS was added to the medium at a final concentration of 1 μg/mL, followed by incubation for 1 h. To prepare protein samples, the medium was completely removed by aspiration, and the cells were washed with cold PBS and then lysed with lysis buffer [10 mM Tris-HCl (pH 7.5), 100 mM NaCl, 1 mM EDTA, 1 mM EGTA, 1% Triton X-100, 10% glycerol, and 0.1% SDS] with a protease inhibitor cocktail (Roche, Switzerland). The protein samples were sonicated and centrifuged at 16,000 × g for 10 min. The supernatant was then transferred to a new tube and used for immunoblot analysis. The protein samples were separated using sodium dodecyl sulfate-polyacrylamide gel electrophoresis (SDS-PAGE), and the separated proteins were transferred onto a nitrocellulose membrane (0.45 μm, Merck Millipore, USA). […] The unbound antibodies were washed with PBS-T, and the antibodies bound to the nitrocellulose membrane were detected using the SuperSignal system (SuperSignal; Thermo Fisher Scientific), using horseradish peroxidase-conjugated secondary antibodies (Abcam, Cambridge, UK).
# RBL-2H3 cells = experiment: β-Hexosaminidase release (degranulation) assay; type: cell-based, rat; parameters: key: +, active; -, inactive; details: Figure 4B summary
# Protocol: The β-hexosaminidase release assay was performed as previously described. RBL-2H3 cells (5 × 10^4 cells/well) were seeded in 96-well plates and incubated for 24 h. The medium was removed, and the cells were washed twice with siraganian buffer (119 mM NaCl, 5 mM KCl, 5.6 mM glucose, 0.4 mM MgCl2, 25 mM PIPES, 40 mM NaOH, 1 mM CaCl2, and 0.1% BSA, pH 7.2), and then incubated in 100 μL siraganian buffer supplemented with compound 48/80 (Sigma-Aldrich, St. Louis, MO, USA), melittin, or melittin-derived peptides for 1 h. Compound 48/80 was used as a positive control. The reaction was terminated by incubation at 4 °C for 10 min. The fluorescence of β-hexosaminidase in the supernatant was measured with a β-hexosaminidase activity assay kit (Cell Biolabs, USA) using a 2104 EnVision multilabel plate reader (PerkinElmer, USA) at […]. The relative fluorescence units of β-hexosaminidase release were calculated by subtracting the fluorescence intensity of the control group from that of the experimental group.
Compound,"antioxidant activity (ABTS radical scavenging), in words [1]",Anti-oxidant activity (summary) [1],Cytotoxicity (summary) (BEAS-2B cells),Anti-inflammatory activity (summary) [2],"cellular activity (cell viability) (BEAS-2B cells; BEAS-2B, 2.5 μM, MTS, n = 3) [%]","concentration showing strong cytotoxicity (BEAS-2B cells; BEAS-2B, MTS) [µM]","inhibition of mRNA expression of inflammatory cytokines (TNF-α, IL-6, IL-1β) ([2]; RAW 264.7, 1.25 μM, 24 h pretreatment, LPS 1 μg/mL 6 h, qRT-PCR, n = 3)",effect on LPS-induced IκBα phosphorylation [3],Allergenic activity (summary) (RBL-2H3 cells)
"P4: melittin-derived peptide consisting of nine amino acids of the N-terminal of melittin (GIGAVLKVL; Melittin; UniProt P01501 44-52, looked up, fragment)",did not show antioxidant activity,-,-,-,,,,,
CC[C@H](C)[C@H](NC(=O)CN)C(=O)NCC(=O)N[C@@H](C)C(=O)N[C@H](C(=O)N[C@@H](CC(C)C)C(=O)N[C@@H](CCCCN)C(=O)N[C@H](C(=O)N[C@@H](CC(C)C)C(=O)N[C@H](C(=O)N[C@H](C(=O)NCC(=O)N[C@@H](CC(C)C)C(=O)N1CCC[C@H]1C(=O)N[C@@H](C)C(=O)N[C@@H](CC(C)C)C(=O)N[C@H](C(=O)N[C@@H](CO)C(=O)N[C@@H](Cc1c[nH]c2ccccc12)C(=O)N[C@H](C(=O)N[C@@H](CCCCN)C(=O)N[C@@H](CCCNC(=N)N)C(=O)N[C@@H](CCCCN)C(=O)N[C@@H](CCCNC(=N)N)C(=O)N[C@@H](CCC(N)=O)C(=O)N[C@@H](CCC(N)=O)C(N)=O)[C@@H](C)CC)[C@@H](C)CC)[C@@H](C)O)[C@@H](C)O)C(C)C)C(C)C [Melittin],comparable to that of resveratrol,+,+,+,75,≥ 5,significant inhibition,decreased slightly,+
"P3: melittin-derived peptide composed of C-terminal 11 amino acids (LISWIKRKRQQ; ends and bridges not checked; UniProt P01501 59-69, looked up, fragment)",,+,-,-,,,,,

# Reference: PMC9423820, “Melittin-derived peptides exhibit variations in cytotoxicity and antioxidant, anti-inflammatory and allergenic activities” (Animal Cells and Systems, 2022)
